From patent publication US6187770A, “N-substituted azaheterocyclic compounds” (Novo Nordisk A/S, priority 1998, dated 2001)

Test system: histamine induced blood glucose rise
Test: Histamine induced hyperglycemia in mice
Format: in vivo
Conditions: 1.0 mg/kg ip, 30 min before histamine chloride (90 nmol icv); blood glucose at 0 and 40 min; male NMRI mice
Method: Conscious unfasted 25 g male NMRI mice are administered histamine chloride (90 nmol) icv according to the method of Nishibori et al. (J. Pharmacol. Exp. Therap. 241, […], 1987). Blood glucose is determined at time 0 and 40 min after the histamine injection. Test compounds are administered at 1.0 mg/kg ip 30 min before the histamine injection, and % inhibition refers to the capacity of the compounds to inhibit the histamine induced blood glucose rise.

O=C(O)CCN1CCN2c3ccccc3Sc3ccccc3C2C1 (stereo not shown) [Example 4, 3-(1,3,4,14b-Tetrahydro-2H-dibenzo[b,f]pyrazino[1,2-d][1,4]thiazepin-2-yl)-propionic acid]
% inhibition of histamine induced hyperglycemia: 48%
